Reference: ChEMBL document CHEMBL1201862, “PubChem BioAssay data set” (2004)
Activity calls are given as the source filed them.

Columns and labels:
HeLa = experiment: viability loss in HeLa cells – cell-based, 24 h, cherry-picked samples, cytotoxicity control, dose response (AID 504726); assay type: functional; settings: Homo sapiens;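 further: potency for cytotoxicity as loss of luminescence signal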
[1] = Counterscreen for IDE inhibitors: Luminescence-based cell-based high throughput dose response assay to identify compounds that are cytotoxic to HEK cells. [Related pubchem assays: 434962 (Primary screen (IDE inhibitors in singlicate)), 449730 (Counterscreen (Cytotoxicity in triplicate)), 435028 (Confirmation (IDE inhibitors in triplicate)) …; assay type: functional; settings: HEK293
Insulin-degrading enzyme = Insulin-degrading enzyme (Homo sapiens, UniProt P14735); experiment: Dose Response: Fluorescence polarization-based cell-based high throughput dose response assay for inhibitors of insulin-degrading enzyme (IDE). [Related pubchem assays: 434962 (Primary screen (IDE inhibitors in singlicate)), 449730 (Counterscreen (Cytotoxicity in triplicate)), 435028 (Confirmation (IDE inhibitors in triplicate)), 434984 (Summary …; assay type: functional
[2] = target: T1, Sphingosine 1-phosphate receptor 4 (Homo sapiens, UniProt O95977); experiment: Fluorescence dose response cell-based high throughput screening assay for antagonists of the Sphingosine 1-Phosphate Receptor 4 (S1P4). [Related pubchem assays: 1524 (Confirmation in triplicates.), 1510 (Primary screen.)]; assay type: functional
T1 sequence (O95977 whole entry): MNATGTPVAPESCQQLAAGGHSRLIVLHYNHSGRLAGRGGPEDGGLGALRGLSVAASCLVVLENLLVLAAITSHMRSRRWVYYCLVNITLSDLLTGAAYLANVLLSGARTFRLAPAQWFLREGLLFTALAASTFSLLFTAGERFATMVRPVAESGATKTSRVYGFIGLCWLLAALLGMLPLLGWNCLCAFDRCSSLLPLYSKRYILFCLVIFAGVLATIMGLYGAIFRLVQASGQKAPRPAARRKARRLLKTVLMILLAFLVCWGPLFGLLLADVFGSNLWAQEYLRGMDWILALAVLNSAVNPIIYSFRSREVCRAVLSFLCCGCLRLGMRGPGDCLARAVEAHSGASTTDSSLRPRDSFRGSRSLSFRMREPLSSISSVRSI

[3] = target: Sphingosine 1-phosphate receptor 1 (Homo sapiens, UniProt P21453); assay type: functional;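 further: Tango beta-arrestin reporter U2OS cells stimulated with S1P near its EC80; inhibitor potency meaning antagonism of receptor activation by the natural agonist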
Exodeoxyribonuclease V = target: T2, Exodeoxyribonuclease V (Escherichia coli (strain K12), UniProt P04993+P07648+P08394); experiment: RecBCD inhibition via phage-restricted bacterial growth – absorbance, V66 E. coli, mutant T4 phage, counter-screen for AddAB inhibitor project, dose response (AID 492957); assay type: functional, cell-based, Escherichia coli str. K-12 substr. MG1655
T2 sequence (P04993 whole entry): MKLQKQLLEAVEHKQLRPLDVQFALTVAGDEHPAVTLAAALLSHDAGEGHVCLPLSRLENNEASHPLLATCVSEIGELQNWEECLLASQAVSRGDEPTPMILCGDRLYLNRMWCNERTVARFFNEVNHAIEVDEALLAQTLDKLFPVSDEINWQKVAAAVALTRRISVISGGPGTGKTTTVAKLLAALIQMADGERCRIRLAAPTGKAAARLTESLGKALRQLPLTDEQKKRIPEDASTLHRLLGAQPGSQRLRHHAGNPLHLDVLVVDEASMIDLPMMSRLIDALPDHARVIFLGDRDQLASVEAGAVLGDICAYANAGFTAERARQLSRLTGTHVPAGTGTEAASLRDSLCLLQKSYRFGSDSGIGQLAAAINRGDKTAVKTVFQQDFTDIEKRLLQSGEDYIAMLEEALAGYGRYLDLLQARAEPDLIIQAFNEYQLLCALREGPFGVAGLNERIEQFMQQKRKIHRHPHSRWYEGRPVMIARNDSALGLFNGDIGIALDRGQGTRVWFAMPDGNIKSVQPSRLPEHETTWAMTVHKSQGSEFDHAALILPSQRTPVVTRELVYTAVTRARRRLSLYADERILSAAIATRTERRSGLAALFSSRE
T2 sequence (P07648 whole entry): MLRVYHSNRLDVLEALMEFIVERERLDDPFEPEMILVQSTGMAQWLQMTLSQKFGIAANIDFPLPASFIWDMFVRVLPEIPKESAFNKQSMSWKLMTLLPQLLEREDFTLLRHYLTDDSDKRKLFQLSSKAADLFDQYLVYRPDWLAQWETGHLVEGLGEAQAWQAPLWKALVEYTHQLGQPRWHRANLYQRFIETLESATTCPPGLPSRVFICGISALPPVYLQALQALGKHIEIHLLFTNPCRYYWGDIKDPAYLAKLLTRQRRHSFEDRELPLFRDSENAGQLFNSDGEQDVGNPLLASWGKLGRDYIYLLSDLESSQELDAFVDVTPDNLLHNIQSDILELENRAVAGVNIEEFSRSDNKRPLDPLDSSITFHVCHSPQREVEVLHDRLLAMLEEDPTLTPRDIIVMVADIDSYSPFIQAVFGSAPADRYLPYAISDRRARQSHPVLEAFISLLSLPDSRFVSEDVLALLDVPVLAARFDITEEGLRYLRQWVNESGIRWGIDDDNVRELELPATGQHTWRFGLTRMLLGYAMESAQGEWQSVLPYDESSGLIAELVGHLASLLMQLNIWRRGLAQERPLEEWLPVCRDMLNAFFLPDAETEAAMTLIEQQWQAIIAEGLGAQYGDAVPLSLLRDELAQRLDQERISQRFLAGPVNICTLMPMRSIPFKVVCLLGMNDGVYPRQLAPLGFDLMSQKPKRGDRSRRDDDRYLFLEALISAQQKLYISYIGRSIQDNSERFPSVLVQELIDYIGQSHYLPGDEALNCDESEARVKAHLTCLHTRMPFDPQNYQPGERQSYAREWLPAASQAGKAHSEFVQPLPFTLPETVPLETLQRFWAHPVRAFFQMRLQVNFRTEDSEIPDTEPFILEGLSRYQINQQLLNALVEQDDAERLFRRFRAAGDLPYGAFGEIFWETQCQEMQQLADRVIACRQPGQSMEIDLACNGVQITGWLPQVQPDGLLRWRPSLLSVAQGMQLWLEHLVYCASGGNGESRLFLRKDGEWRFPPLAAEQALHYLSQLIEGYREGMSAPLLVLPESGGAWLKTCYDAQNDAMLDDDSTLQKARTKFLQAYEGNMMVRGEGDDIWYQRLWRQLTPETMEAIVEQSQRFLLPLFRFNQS
T2 sequence (P08394 whole entry): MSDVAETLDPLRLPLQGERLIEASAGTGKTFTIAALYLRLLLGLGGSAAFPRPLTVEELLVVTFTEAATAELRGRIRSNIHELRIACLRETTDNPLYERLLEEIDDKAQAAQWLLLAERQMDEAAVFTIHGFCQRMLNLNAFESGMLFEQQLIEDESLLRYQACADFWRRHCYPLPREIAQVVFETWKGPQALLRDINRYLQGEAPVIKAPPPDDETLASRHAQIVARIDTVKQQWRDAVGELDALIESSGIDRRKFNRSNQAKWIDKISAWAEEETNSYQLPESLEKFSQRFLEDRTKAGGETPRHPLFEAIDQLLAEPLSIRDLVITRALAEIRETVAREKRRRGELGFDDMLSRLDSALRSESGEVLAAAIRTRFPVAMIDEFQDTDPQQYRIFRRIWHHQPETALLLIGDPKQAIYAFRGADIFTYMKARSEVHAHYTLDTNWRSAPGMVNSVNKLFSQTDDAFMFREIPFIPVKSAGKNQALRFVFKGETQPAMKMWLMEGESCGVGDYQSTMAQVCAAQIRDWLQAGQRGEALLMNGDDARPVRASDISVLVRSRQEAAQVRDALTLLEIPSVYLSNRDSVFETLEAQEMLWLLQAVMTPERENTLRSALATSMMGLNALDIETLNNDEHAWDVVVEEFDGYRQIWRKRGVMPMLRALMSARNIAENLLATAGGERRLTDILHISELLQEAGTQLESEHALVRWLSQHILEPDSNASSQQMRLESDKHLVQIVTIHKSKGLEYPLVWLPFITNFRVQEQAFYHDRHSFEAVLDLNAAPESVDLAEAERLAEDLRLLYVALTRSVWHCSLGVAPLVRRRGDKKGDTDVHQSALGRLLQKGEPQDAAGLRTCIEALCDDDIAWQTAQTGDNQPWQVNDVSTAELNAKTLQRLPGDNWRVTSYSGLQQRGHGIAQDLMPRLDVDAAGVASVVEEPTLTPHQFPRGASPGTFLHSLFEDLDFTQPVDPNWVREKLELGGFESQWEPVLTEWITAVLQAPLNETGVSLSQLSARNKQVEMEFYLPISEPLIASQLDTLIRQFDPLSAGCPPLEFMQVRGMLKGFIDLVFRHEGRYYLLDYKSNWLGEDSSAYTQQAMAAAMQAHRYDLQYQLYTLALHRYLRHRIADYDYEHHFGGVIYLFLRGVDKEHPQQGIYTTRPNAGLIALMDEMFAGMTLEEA

Keap1/Nrf2 = Keap1/Nrf2 (Homo sapiens, UniProt Q14145); experiment: disruptors of Keap1 binding to Nrf2 peptide – biochemical, fluorescence polarization, cherry-picked samples, dose response (AID 588683)
Beta Lactamase [4] = target: T3, Beta Lactamase (Pseudomonas aeruginosa, UniProt Q932Y6); experiment: BLA reporter interference, concentration series – BLA reporter cells, FRET fluorescence, artefact control for TLR9-MyD88 binding inhibitor project, dose response (AID 588341); assay type: cell-based;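 further: cell based assay in CHO-K1 cells stably expressing beta-lactamase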
Beta Lactamase [5] = target: T3, Beta Lactamase; experiment: BLA reporter interference, concentration series – BLA reporter cells, FRET fluorescence, artefact control for NOD2-RIPK2 interaction inhibitor project, dose response (AID 651552); assay type: functional, cell-based
[6] = target: Luciferin 4-monooxygenase (Photinus pyralis, UniProt P08659); experiment: Counter Screen for Luciferase-based Assay Positives. [Related pubchem assays: 620, 618, 411 ]
HT-1080 = experiment: HT1080 cell viability loss – fluorescence readout (AID 620); assay type: functional, cell-based; settings: Homo sapiens
[7] = antiviral protection against BTV-induced cell death – arbovirus, BSR cells, confirmation (AID 1250); assay type: functional;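 further: protection from viral cytopathic effect measured as cell viability by ATP luminescence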
[8] = target: FAD-linked sulfhydryl oxidase ALR (Homo sapiens, UniProt P55789); experiment: ALR-catalysed DTT oxidation blockers – biochemical, H2O2 detection, luminescence, cherry-pick, dose response (AID 493248)
[9] = target: T4, Alkaline phosphatase, tissue-nonspecific isozyme (Homo sapiens, UniProt P05186)
T4 sequence (P05186 whole entry): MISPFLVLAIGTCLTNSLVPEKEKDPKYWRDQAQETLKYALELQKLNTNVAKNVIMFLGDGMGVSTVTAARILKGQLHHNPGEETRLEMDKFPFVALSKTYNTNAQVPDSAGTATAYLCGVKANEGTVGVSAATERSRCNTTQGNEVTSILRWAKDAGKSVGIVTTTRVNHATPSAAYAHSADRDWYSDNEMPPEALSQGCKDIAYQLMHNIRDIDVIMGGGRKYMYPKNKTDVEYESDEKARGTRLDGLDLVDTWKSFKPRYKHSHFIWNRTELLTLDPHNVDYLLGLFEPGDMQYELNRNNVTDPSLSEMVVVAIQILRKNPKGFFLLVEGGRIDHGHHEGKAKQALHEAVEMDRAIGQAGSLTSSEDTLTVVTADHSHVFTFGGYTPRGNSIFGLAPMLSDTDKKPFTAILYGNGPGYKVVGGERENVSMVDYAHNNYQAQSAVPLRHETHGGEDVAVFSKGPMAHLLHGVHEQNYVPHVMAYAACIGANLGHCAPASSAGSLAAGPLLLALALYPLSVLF

[10] = HGIII-sPLA2 enzyme inhibition potency – biochemical, QFRET, IC50, dose response (AID 743457);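 further: green fluorescence rise as the enzyme cleaves BODIPY PC-A2 in liposomes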

T3 sequence (Q932Y6 whole entry): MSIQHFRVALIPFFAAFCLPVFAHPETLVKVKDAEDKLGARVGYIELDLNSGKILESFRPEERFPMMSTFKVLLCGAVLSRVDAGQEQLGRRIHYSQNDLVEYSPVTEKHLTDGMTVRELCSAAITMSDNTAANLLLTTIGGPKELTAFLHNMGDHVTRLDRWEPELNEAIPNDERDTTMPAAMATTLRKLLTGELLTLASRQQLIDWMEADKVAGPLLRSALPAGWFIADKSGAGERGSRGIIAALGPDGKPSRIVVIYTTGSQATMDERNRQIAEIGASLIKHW
FAD-linked sulfhydryl oxidase ALR, sequence (P55789 whole entry): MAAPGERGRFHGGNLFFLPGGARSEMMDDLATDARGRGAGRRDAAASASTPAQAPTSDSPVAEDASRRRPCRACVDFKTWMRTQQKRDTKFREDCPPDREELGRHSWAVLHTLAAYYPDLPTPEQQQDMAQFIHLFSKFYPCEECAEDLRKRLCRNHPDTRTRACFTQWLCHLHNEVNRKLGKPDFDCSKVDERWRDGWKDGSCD
Keap1/Nrf2, sequence (Q16236 whole entry): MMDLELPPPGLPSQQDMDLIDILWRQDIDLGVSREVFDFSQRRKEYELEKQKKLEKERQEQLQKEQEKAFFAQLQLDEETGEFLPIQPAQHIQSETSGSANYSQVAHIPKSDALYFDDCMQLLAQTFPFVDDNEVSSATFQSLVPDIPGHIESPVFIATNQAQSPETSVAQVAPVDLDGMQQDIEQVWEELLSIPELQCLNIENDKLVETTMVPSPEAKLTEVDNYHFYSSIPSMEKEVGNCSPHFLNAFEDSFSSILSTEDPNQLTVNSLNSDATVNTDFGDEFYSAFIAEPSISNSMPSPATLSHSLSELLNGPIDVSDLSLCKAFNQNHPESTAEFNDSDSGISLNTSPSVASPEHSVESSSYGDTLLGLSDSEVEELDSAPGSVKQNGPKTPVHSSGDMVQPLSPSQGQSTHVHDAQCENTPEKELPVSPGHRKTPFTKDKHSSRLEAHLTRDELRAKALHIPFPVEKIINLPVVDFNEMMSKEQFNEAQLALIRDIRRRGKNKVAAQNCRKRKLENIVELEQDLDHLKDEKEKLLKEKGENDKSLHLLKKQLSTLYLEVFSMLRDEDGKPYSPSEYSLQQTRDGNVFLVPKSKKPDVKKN
Keap1/Nrf2, sequence (Q14145 whole entry): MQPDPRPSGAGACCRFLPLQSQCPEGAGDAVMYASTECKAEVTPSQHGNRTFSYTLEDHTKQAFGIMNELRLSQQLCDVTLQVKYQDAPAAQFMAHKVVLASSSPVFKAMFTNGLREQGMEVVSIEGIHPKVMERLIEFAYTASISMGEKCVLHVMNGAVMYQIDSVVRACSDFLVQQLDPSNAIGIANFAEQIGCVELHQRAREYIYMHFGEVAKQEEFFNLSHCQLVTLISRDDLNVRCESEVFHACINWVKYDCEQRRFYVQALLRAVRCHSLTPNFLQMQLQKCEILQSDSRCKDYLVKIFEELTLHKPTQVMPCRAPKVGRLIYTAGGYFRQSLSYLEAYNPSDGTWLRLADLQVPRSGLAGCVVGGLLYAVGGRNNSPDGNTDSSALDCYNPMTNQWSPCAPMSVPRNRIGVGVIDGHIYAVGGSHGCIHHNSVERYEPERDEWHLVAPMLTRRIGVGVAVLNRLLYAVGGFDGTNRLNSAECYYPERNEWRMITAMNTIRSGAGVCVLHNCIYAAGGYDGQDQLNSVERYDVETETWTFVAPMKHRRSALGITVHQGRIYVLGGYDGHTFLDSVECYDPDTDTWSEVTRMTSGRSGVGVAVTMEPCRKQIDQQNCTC
Insulin-degrading enzyme, sequence (P14735 whole entry): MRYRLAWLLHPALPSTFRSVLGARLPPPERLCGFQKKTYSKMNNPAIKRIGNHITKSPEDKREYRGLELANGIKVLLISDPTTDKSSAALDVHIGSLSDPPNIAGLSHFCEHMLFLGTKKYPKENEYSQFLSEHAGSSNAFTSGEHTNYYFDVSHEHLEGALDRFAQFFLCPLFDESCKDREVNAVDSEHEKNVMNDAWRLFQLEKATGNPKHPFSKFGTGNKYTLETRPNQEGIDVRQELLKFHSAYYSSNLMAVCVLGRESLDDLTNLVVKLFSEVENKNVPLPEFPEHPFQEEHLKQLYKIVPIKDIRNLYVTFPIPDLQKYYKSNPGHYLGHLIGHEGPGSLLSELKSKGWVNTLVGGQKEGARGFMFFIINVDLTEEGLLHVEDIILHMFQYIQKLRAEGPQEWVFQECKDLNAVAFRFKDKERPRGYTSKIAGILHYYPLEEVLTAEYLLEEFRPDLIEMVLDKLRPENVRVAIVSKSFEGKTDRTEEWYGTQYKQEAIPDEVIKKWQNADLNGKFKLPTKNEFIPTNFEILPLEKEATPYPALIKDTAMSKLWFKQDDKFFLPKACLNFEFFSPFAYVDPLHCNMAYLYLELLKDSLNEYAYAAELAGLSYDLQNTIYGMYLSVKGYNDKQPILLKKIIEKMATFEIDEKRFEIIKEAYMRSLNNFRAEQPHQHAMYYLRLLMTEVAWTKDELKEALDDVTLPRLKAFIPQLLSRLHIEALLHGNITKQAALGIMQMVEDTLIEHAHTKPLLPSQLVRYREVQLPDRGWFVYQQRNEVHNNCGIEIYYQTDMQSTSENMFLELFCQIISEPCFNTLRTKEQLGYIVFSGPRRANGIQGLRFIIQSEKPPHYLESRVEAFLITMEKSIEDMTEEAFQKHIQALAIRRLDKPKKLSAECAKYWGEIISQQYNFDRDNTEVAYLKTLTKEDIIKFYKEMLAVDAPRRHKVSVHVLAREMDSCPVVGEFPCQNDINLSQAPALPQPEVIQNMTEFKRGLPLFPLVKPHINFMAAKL
Sphingosine 1-phosphate receptor 1, sequence (P21453 whole entry): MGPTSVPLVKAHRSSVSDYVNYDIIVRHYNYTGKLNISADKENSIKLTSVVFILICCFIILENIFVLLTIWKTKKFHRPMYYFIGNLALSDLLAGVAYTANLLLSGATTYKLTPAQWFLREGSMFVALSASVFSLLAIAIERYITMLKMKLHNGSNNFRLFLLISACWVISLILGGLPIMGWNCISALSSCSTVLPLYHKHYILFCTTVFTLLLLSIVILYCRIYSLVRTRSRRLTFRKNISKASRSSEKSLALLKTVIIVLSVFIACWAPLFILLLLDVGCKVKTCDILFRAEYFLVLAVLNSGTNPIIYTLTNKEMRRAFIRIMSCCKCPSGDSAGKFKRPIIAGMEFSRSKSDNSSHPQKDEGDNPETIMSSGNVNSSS
Luciferin 4-monooxygenase, sequence (P08659 whole entry): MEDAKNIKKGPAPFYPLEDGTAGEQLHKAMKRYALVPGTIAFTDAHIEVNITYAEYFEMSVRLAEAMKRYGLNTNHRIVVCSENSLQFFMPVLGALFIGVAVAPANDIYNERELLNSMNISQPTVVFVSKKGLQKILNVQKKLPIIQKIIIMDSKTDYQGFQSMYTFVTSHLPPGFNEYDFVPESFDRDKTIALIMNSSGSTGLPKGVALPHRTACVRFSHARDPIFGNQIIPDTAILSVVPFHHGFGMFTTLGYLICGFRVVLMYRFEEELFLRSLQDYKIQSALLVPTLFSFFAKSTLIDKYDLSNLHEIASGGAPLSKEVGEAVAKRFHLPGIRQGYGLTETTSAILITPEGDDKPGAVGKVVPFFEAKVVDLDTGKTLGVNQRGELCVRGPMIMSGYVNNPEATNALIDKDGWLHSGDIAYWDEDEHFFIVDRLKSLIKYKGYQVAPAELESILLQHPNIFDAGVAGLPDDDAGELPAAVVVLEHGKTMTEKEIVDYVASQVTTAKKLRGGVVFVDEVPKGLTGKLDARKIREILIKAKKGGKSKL

NNc1nc2sc3c(c2c(=O)n1C1CCCCC1)CCN(Cc1ccccc1)C3
AC50 (HeLa): 46 µM (active)

O=C(N/N=C/c1cccnc1)c1cccc(NC(=O)c2cccc(Br)c2)c1
IC50 [1]: 53.6 µM (not active)
IC50 (Insulin-degrading enzyme): 21.9 µM (not active)

C=CCn1c(Sc2ncc([N+](=O)[O-])s2)n[nH]c1=O
IC50 [2]: 2.63 µM (active)
IC50 [3]: 18.1 µM (not active)
IC50 (Exodeoxyribonuclease V): 77.2 µM (inactive)
AC50 (Keap1/Nrf2): > 52 µM (inactive)
IC50 (Beta Lactamase [4]): > 49.8 µM (inactive)
IC50 (Beta Lactamase [5]): 42 µM (inactive)

COc1ccc(-c2cc(C(=O)O)c(C)o2)cc1OC
EC50 [6]: 4.68 µM (active)
EC50 (HT-1080): > 50 µM (not active)

CCN(CC)c1ccc(NC(=O)c2c(OC)cccc2OC)c(C)c1
IC50 [7]: 23.5 µM (active)
AC50 [8]: 0.84 µM (active)

Cc1ccc(NC(S)=NNC(=O)c2nn(C)cc2Cl)cc1
EC50 [9]: 61 µM (not active)
IC50 [10]: > 122 µM (inactive)
